Measurements: ChEMBL document CHEMBL1201861, “Genomics of Drug Sensitity in Cancer screening data, Wellcome Trust Sanger Institute”

Assays:
Test in all cases: cells
Details in all cases: Homo sapiens
RD = format: functional, cell-based
Description: SANGER: Inhibition of human RD cell growth in a cell viability assay.

BT-20 = format: functional, cell-based;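 further: cell viability assay measuring suppression of growth in human BT-20 cells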
Description: SANGER: Inhibition of human BT-20 cell growth in a cell viability assay.

BEN = format: functional, cell-based;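 further: growth inhibition of the BEN cell line, read out with a cell viability assay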
Description: SANGER: Inhibition of human BEN cell growth in a cell viability assay.

YAPC = format: functional, cell-based;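 further: growth inhibition of YAPC cells, measured with a cell viability assay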
Description: SANGER: Inhibition of human YAPC cell growth in a cell viability assay.

SAOS-2 = format: functional, cell-based;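 further: growth inhibition of human Saos-2 cells determined by a cell viability assay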
Description: SANGER: Inhibition of human Saos-2 cell growth in a cell viability assay.

HCC2157 = format: functional, cell-based;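 further: growth inhibition of the cancer cell line, read out as cell viability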
Description: SANGER: Inhibition of human HCC2157 cell growth in a cell viability assay.

EFO-21 = format: functional, cell-based;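 further: growth inhibition of EFO-21 cells measured with a viability assay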
Description: SANGER: Inhibition of human EFO-21 cell growth in a cell viability assay.

OVCAR-8 = format: functional, cell-based;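 further: growth inhibition of human OVCAR-8 cells, read out by a cell viability assay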
Description: SANGER: Inhibition of human OVCAR-8 cell growth in a cell viability assay.

TYK-nu = format: functional, cell-based;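 further: growth inhibition of human TYK-nu cells, read out by a cell viability assay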
Description: SANGER: Inhibition of human TYK-nu cell growth in a cell viability assay.

MKN-28 = format: functional, cell-based;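 further: cell viability assay read-out, IC50 reflects suppression of growth of human MKN-28 cells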
Description: SANGER: Inhibition of human MKN28 cell growth in a cell viability assay.

MC-IXC = format: functional, cell-based;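 further: growth inhibition of MC-IXC cells, read out with a cell viability assay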
Description: SANGER: Inhibition of human MC-IXC cell growth in a cell viability assay.

23132-87 = format: functional, cell-based
Description: SANGER: Inhibition of human 23132-87 cell growth in a cell viability assay.

M14 = format: functional, cell-based;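 further: growth inhibition of M14 cells, read out with a cell viability assay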
Description: SANGER: Inhibition of human M14 cell growth in a cell viability assay.

Ca9-22 = format: functional, cell-based;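 further: growth inhibition of Ca9-22 cells, read out with a cell viability assay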
Description: SANGER: Inhibition of human Ca9-22 cell growth in a cell viability assay.

KYSE-510 = format: functional, cell-based;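 further: cell viability readout used to measure how strongly growth of the cell line is suppressed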
Description: SANGER: Inhibition of human KYSE-510 cell growth in a cell viability assay.

NCI-H650 = format: functional, cell-based;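 further: growth inhibition of NCI-H650 cells, read out by a viability assay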
Description: SANGER: Inhibition of human NCI-H650 cell growth in a cell viability assay.

SNU-423 = format: functional, cell-based
Description: SANGER: Inhibition of human SNU-423 cell growth in a cell viability assay.

T98G = format: functional, cell-based;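 further: growth inhibition of T98G cells, read out by a cell viability assay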
Description: SANGER: Inhibition of human T98G cell growth in a cell viability assay.

MEL-JUSO = format: functional, cell-based;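 further: growth inhibition of human MEL-JUSO cells, read out with a cell viability assay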
Description: SANGER: Inhibition of human MEL-JUSO cell growth in a cell viability assay.

COLO-792 = format: functional, cell-based
Description: SANGER: Inhibition of human COLO-792 cell growth in a cell viability assay.

SK-MEL-24 = format: functional, cell-based;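 further: growth inhibition read out by a cell viability assay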
Description: SANGER: Inhibition of human SK-MEL-24 cell growth in a cell viability assay.

LCLC-97TM1 = format: functional, cell-based;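 further: cell viability assay measuring growth inhibition of human LCLC-97TM1 cells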
Description: SANGER: Inhibition of human LCLC-97TM1 cell growth in a cell viability assay.

ABC-1 = format: functional, cell-based;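 further: growth inhibition of human ABC-1 cells, read out by a cell viability assay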
Description: SANGER: Inhibition of human ABC-1 cell growth in a cell viability assay.

639-V = format: functional, cell-based;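 further: growth inhibition of 639-V cells, read out with a cell viability assay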
Description: SANGER: Inhibition of human 639-V cell growth in a cell viability assay.

SW1463 = format: functional, cell-based;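 further: growth inhibition of SW1463 cells, determined with a cell viability assay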
Description: SANGER: Inhibition of human SW1463 cell growth in a cell viability assay.

MOLT-13 = format: functional, cell-based;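 further: IC50 for suppression of MOLT-13 cell growth, read out with a cell viability assay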
Description: SANGER: Inhibition of human MOLT-13 cell growth in a cell viability assay.

SCC-4 = format: functional, cell-based;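 further: growth inhibition of human SCC-4 cells, read out as cell viability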
Description: SANGER: Inhibition of human SCC-4 cell growth in a cell viability assay.

NCI-H1993 = format: functional, cell-based;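 further: growth inhibition of the cancer cell line, assessed with a cell viability assay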
Description: SANGER: Inhibition of human NCI-H1993 cell growth in a cell viability assay.

SiHa = format: functional, cell-based;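 further: Viability-based readout of growth inhibition in SiHa cells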
Description: SANGER: Inhibition of human SiHa cell growth in a cell viability assay.

JEG-3 = format: functional, cell-based;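 further: growth inhibition of human JEG-3 cells, read out with a cell viability assay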
Description: SANGER: Inhibition of human JEG-3 cell growth in a cell viability assay.

HO-1-N-1 = format: functional, cell-based;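 further: growth inhibition of human HO-1-N-1 cells, read out with a cell viability assay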
Description: SANGER: Inhibition of human HO-1-N-1 cell growth in a cell viability assay.

S-117 = format: functional, cell-based
Description: SANGER: Inhibition of human S-117 cell growth in a cell viability assay.

NCI-H630 = format: functional, cell-based;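 further: growth inhibition of NCI-H630 cells, read out with a cell viability assay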
Description: SANGER: Inhibition of human NCI-H630 cell growth in a cell viability assay.

SW1710 = format: functional, cell-based;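 further: growth inhibition of SW1710 cells, determined with a cell viability assay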
Description: SANGER: Inhibition of human SW1710 cell growth in a cell viability assay.

LN-405 = format: functional, cell-based
Description: SANGER: Inhibition of human LN-405 cell growth in a cell viability assay.

SW-620 = format: functional, cell-based;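 further: growth inhibition of human SW-620 cells, measured by a cell viability assay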
Description: SANGER: Inhibition of human SW620 cell growth in a cell viability assay.

D-247MG = format: functional, cell-based
Description: SANGER: Inhibition of human D-247MG cell growth in a cell viability assay.

GP5d = format: functional, cell-based;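 further: growth inhibition of human GP5d cells, read out with a cell viability assay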
Description: SANGER: Inhibition of human GP5d cell growth in a cell viability assay.

D-336MG = format: functional, cell-based
Description: SANGER: Inhibition of human D-336MG cell growth in a cell viability assay.

KYSE-180 = format: functional, cell-based;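 further: growth inhibition of KYSE-180 cells, read out with a cell viability assay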
Description: SANGER: Inhibition of human KYSE-180 cell growth in a cell viability assay.

A2058 = format: functional, cell-based;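 further: reduction of A2058 cell growth, read out with a viability assay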
Description: SANGER: Inhibition of human A2058 cell growth in a cell viability assay.

Detroit 562 = format: functional, cell-based;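 further: growth inhibition of human Detroit 562 cells, read out by a cell viability assay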
Description: SANGER: Inhibition of human Detroit562 cell growth in a cell viability assay.

647-V = format: functional, cell-based;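 further: growth inhibition of 647-V cells, read out with a cell viability assay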
Description: SANGER: Inhibition of human 647-V cell growth in a cell viability assay.

MCF7 = format: functional, cell-based;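 further: growth inhibition of human MCF7 cells, read out with a cell viability assay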
Description: SANGER: Inhibition of human MCF7 cell growth in a cell viability assay.

BHT-101 = format: functional, cell-based
Description: SANGER: Inhibition of human BHT-101 cell growth in a cell viability assay.

SBC-5 = format: functional, cell-based;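 further: cell viability assay read-out, IC50 is the concentration that inhibits growth of the cells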
Description: SANGER: Inhibition of human SBC-5 cell growth in a cell viability assay.

SNU-387 = format: functional, cell-based
Description: SANGER: Inhibition of human SNU-387 cell growth in a cell viability assay.

5637 = format: functional, cell-based
Description: SANGER: Inhibition of human 5637 cell growth in a cell viability assay.

CAPAN-1 = format: functional, cell-based;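 further: growth suppression of CAPAN-1 cells, read out by a cell viability assay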
Description: SANGER: Inhibition of human CAPAN-1 cell growth in a cell viability assay.

SK-LU-1 = format: functional, cell-based;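 further: cell viability assay measuring growth inhibition of human SK-LU-1 cells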
Description: SANGER: Inhibition of human SK-LU-1 cell growth in a cell viability assay.

C32 = format: functional, cell-based;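 further: cell viability assay, with IC50 reflecting inhibition of C32 cell growth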
Description: SANGER: Inhibition of human C32 cell growth in a cell viability assay.

HCC38 = format: functional, cell-based;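 further: cell viability assay on the human HCC38 cell line, with IC50 marking the concentration that inhibits cell growth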
Description: SANGER: Inhibition of human HCC38 cell growth in a cell viability assay.

SK-HEP1 = format: functional, cell-based, SK-HEP-1;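 further: cell viability readout used to quantify reduction in proliferation of human SK-HEP-1 cells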
Description: SANGER: Inhibition of human SK-HEP-1 cell growth in a cell viability assay.

NCI-H2009 = format: functional, cell-based;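 further: cell viability assay measuring inhibition of NCI-H2009 cell growth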
Description: SANGER: Inhibition of human NCI-H2009 cell growth in a cell viability assay.

Measured: IC50

CCCS(=O)(=O)Nc1ccc(F)c(C(=O)c2c[nH]c3ncc(Cl)cc23)c1F [PLX-4720]
> 10 µM: RD | BT-20 | BEN | YAPC | SAOS-2 | HCC2157 | EFO-21 | OVCAR-8 | TYK-nu | MKN-28 | MC-IXC | 23132-87 | Ca9-22 | KYSE-510 | NCI-H650 | SNU-423 | T98G | MEL-JUSO | COLO-792 | SK-MEL-24 | LCLC-97TM1 | ABC-1 | 639-V | SW1463 | MOLT-13 | SCC-4 | NCI-H1993 | SiHa | JEG-3 | HO-1-N-1 | S-117 | NCI-H630 | SW1710 | LN-405 | SW-620 | D-247MG | GP5d | D-336MG | KYSE-180 | Detroit 562 | 647-V | MCF7 | SBC-5 | SNU-387 | 5637 | CAPAN-1 | SK-LU-1 | HCC38 | SK-HEP1 | NCI-H2009
4.72 µM: A2058
0.218 µM: M14
0.151 µM: C32
0.707 µM: BHT-101
